# Laboratory results reported in paper PMC7083880 (Nature Communications, 2020).
# Several values for one entry are separate records, joined by “and”; a condition that tells them apart may be missing. Equal values may be shown once.
# Tests used:
# [1] = system: endogenous TP53 gene with UAG nonsense mutation in Caco-2 cells; assay: p53 protein western blot, Caco-2 cells; type: cell-based, human; conditions: Caco-2 (UAG); 24 h
# Description: After 24 h of treatment, proteins were extracted from the cells and the p53 protein was assessed by western blotting (Fig. 2a). After DMSO mock treatment, as anticipated, no p53 protein was detected, because of the presence of the PTC in p53 mRNA[33].
# The three leftmost lanes show twofold serial dilutions of untreated HeLa cell extract. The molecular weight is indicated to the left of each gel. b Schematic representation of the construct used to measure the function of p53. The construct carries a cDNA encoding the firefly luciferase under a promoter having two p53-responsive elements (underlined). […] The level of p21 mRNA is related to the amount of functional p53 protein synthesized in the cell. The results presented in panels b and c are representative of at least two independent experiments., p-values (p) were calculated using Student’s t-test. Source data are provided as a Source Data file. […]
# The equivalent of 2.5 × 10^5 cells was subjected to 10% SDS–PAGE before transfer of the proteins to a nitrocellulose membrane. […] Antibodies were then detected with Super Signal West Femto Maximum Sensitivity Substrate (Pierce-Biotechnology, Rockford, IL, USA). Quantifications were performed with QuantityOne software (Biorad). […]
# [2] = system: p53-null 4T1 cell tumors in nude mice; assay: In vivo tumor growth, 4T1 cells in nude mice; design: species or system mouse
# Description: For each experimental condition, 7 mice were used. b Fourteen nude mice were injected with Calu-6 cells to promote tumor development. […] The arrow indicates the starting time of the exposure to DMSO or DAP. For each experimental condition, 7 mice were used. […] GAPDH was used as loading control. A molecular weight marker is indicated to the left of the gel. The results presented in this figure are representative of two independent experiments. p-values (p) were calculated using Student’s t-test. Source data are provided as a Source Data file.
# Next, the capacity of DAP to correct UGA nonsense mutations in vivo was assessed in a mouse model. Four-week-old immunodeficient nude mice were injected with an identical number of Calu-6 cells carrying a UGA nonsense mutation in the TP53 gene, of HCC-GR6 cells having a wild-type TP53 gene or of p53-null 4T1 cells. […] The slower growth of Calu-6-cell-derived tumors in DAP-treated mice is thus likely due to rescue of p53 protein synthesis in these tumors, as expected on the basis of our cell culture experiments and as observed after western-blotting applied to protein extracts of tumors from DAP-treated mice (Supplementary Fig. 8B). Because of the small size of the Calu-6 tumors in DAP-treated mice and thus the high probability of collecting mouse cells upon tumor excision, quantitation of p53 was done in another experiment.
# To initiate tumor growth, 6-week-old nude mice received subcutaneously 10 million cells suspended in PBS. […] Tumors were measured three times weekly for 5 weeks to determine the tumor volume by the following formula: l (mm) × L (mm) × L (mm). The tumors were then collected and a fraction was used for western blot analysis after protein extraction. All in vivo experiments complied with all relevant ethical regulations for animal testing and research and were authorized by the Ethic Committee 075 under the number 12971-2018010815336092.
compound,measurement,setting,value
"Nc1nc(N)c2[nH]cnc2n1 [DAP, 2,6-diaminopurine]",Synthesis of p53 protein (western blot),[1],not in Caco-2 cells
same,"tumor size, Average","[2]; 4T1, day 4, average of 7 mice",0.036
same,"tumor size, individual mice","[2]; 4T1, day 4, mice 1-7",0.048 and 0.027
same,"tumor size, Average","[2]; 4T1, day 6, average of 7 mice",0.08071
same,"tumor size, individual mice","[2]; 4T1, day 6, mice 1-7",0.125 and 0.064 and 0.1 and 0.048
same,"tumor size, Average","[2]; 4T1, day 8, average of 7 mice",0.09843
same,"tumor size, individual mice","[2]; 4T1, day 8, mice 1-7",0.125 and 0.1 and 0.064
same,"tumor size, Average","[2]; 4T1, day 11, average of 7 mice",0.1407
same,"tumor size, individual mice","[2]; 4T1, day 11, mice 1-7",0.18 and 0.125
same,"tumor size, Average","[2]; 4T1, day 13, average of 7 mice",0.227
same,"tumor size, individual mice","[2]; 4T1, day 13, mice 1-7",0.294 and 0.18 and 0.245 and 0.216
same,"tumor size, Average","[2]; 4T1, day 15, average of 7 mice",0.401
same,"tumor size, individual mice","[2]; 4T1, day 15, mice 1-7",0.448 and 0.567 and 0.294 and 0.343
same,"tumor size, Average","[2]; 4T1, day 18, average of 7 mice",0.6964
same,"tumor size, individual mice","[2]; 4T1, day 18, mice 1-7",0.648 and 0.8 and 0.567 and 0.9 and 0.512
same,"tumor size, Average","[2]; 4T1, day 20, average of 7 mice",0.9223
same,"tumor size, individual mice","[2]; 4T1, day 20, mice 1-7",0.9 and 0.968 and 0.8 and 1.44 and 0.648
same,"tumor size, Average","[2]; 4T1, day 22, average of 7 mice",1.032
same,"tumor size, individual mice","[2]; 4T1, day 22, mice 1-7",0.9 and 0.968 and 0.8 and 1.859
same,"tumor size, Average","[2]; 4T1, day 25, average of 7 mice",1.344
same,"tumor size, individual mice","[2]; 4T1, day 25, mice 1-7",1.089 and 1.44 and 1 and 2.7
same,"tumor size, Average","[2]; 4T1, day 27, average of 7 mice",1.752
same,"tumor size, individual mice","[2]; 4T1, day 27, mice 1-7",1.69 and 1.859 and 1.44 and 1.584 and 1.21 and 3.15 and 1.331
same,"tumor size, Average","[2]; 4T1, day 29, average of 7 mice",2.057
same,"tumor size, individual mice","[2]; 4T1, day 29, mice 1-7",1.69 and 2.028 and 1.859 and 1.584 and 4.046 and 1.331
same,"tumor size, Average","[2]; 4T1, day 32, average of 7 mice",2.639
same,"tumor size, individual mice","[2]; 4T1, day 32, mice 1-7",2.156 and 2.7 and 2.028 and 5.184 and 2.352
same,"tumor size, Average","[2]; 4T1, day 34, average of 7 mice",3.227
same,"tumor size, individual mice","[2]; 4T1, day 34, mice 1-7",2.925 and 2.548 and 2.744 and 5.776
same,"tumor size, Average","[2]; 4T1, day 36, average of 7 mice",3.574
same,"tumor size, individual mice","[2]; 4T1, day 36, mice 1-7",2.925 and 3.15 and 7.2 and 2.744
same,"Tumor growth vs DMSO, in words","[2]; 4T1, nude mice, force-fed daily, 5 weeks",no significant difference in tumor growth
